# Data from ChEMBL document CHEMBL1201862, “PubChem BioAssay data set” (2004).
# Activity calls are given as the source filed them.
# Experiments:
# [1] = target: Megakaryocyte-associated tyrosine-protein kinase (Homo sapiens, UniProt P42679); assay type: functional;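 also: affinity measured as one member of a kinase panel (Navigating the Kinome) against MATK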
# [2] = target: Serine/threonine-protein kinase D2 (Homo sapiens, UniProt Q9BZL6); assay type: functional;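 also: measured against PRKD2 as one member of a kinome-wide kinase profiling panel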
# [3] = target: Testis-specific serine/threonine-protein kinase 2 (Homo sapiens, UniProt Q96PF2); assay type: functional;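 also: part of the Navigating the Kinome panel, target entry STK22B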
# [4] = target: Tyrosine-protein kinase ITK/TSK (Homo sapiens, UniProt Q08881); assay type: functional;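 also: affinity for ITK measured as one member of a broad kinase panel profiling binding across the kinome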
# [5] = target: Proto-oncogene tyrosine-protein kinase ROS (Homo sapiens, UniProt P08922); assay type: functional;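 also: ROS1 tested as one member of a kinome-wide kinase panel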
# [6] = target: Mitogen-activated protein kinase kinase kinase 20 (Homo sapiens, UniProt Q9NYL2); assay type: functional
# [7] = target: Receptor tyrosine-protein kinase erbB-2 (Homo sapiens, UniProt P04626); assay: Navigating the Kinome. Panel member name: ERBB2; assay type: functional
# [8] = target: MAP kinase-activated protein kinase 3 (Homo sapiens, UniProt Q16644); assay type: functional;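 also: value comes from a kinome-wide profiling panel in which MAPKAPK3 is one of the panel members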
# [9] = target: MAP kinase-interacting serine/threonine-protein kinase 2 (Homo sapiens, UniProt Q9HBH9); assay type: functional
# Misshapen-like kinase 1 = Misshapen-like kinase 1 (Homo sapiens, UniProt Q8N4C8); assay type: functional;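 also: kinome panel screen with MINK as the panel member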
# [10] = target: Mitogen-activated protein kinase 12 (Homo sapiens, UniProt P53778); assay type: functional;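 also: measured as one member of a kinome-wide kinase profiling panel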
# HeLa = assay: viability loss in HeLa cells – cell-based, 24 h, cherry-picked samples, cytotoxicity control, dose response (AID 504726); assay type: functional; settings: Homo sapiens;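 also: potency for cytotoxicity as loss of luminescence signal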
# Insulin-degrading enzyme = target: T1, Insulin-degrading enzyme (Homo sapiens, UniProt P14735); assay: recombinant IDE activation, cell-free – biochemical, fluorescence polarization, counter-screen for IDE activator project, dose response (AID 588681)
# T1 sequence (P14735 whole entry): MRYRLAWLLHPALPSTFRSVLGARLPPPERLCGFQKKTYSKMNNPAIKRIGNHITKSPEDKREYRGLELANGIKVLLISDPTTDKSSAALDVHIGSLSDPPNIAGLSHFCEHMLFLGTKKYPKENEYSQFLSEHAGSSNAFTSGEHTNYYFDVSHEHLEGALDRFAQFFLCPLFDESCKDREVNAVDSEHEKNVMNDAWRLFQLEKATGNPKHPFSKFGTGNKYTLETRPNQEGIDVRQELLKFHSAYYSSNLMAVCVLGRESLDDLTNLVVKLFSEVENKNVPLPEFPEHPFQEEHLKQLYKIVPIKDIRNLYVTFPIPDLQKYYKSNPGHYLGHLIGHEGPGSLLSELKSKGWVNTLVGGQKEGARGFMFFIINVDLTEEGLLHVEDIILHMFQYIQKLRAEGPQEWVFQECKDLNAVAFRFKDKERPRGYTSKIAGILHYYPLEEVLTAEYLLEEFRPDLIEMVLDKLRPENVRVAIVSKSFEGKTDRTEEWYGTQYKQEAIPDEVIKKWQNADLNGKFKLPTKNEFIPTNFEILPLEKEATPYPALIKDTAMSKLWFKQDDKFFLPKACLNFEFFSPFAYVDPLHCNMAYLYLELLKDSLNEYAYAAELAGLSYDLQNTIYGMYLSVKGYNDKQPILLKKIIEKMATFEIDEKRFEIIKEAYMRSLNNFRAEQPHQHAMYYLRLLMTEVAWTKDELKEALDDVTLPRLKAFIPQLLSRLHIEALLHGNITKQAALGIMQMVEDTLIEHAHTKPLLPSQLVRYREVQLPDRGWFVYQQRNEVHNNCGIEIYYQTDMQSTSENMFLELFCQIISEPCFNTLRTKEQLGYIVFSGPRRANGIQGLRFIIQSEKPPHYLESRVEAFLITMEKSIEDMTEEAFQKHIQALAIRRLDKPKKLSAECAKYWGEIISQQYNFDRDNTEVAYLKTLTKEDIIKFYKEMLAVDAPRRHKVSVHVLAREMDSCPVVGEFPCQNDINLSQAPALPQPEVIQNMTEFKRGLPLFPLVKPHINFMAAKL
# HEK293 = assay: optical interference in Abeta FP readout, dose response, artefact control for IDE activator project, biochemical, fluorescence polarization (AID 588442); assay type: functional, cell-based; settings: Homo sapiens
# [11] = target: Leucine-rich repeat serine/threonine-protein kinase 2 (Homo sapiens, UniProt Q5S007); assay type: functional;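 also: value from a broad kinome-wide panel profiling study in which LRRK2 was one of the kinases tested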
# Sequence of MAP kinase-interacting serine/threonine-protein kinase 2 (Q9HBH9 whole entry): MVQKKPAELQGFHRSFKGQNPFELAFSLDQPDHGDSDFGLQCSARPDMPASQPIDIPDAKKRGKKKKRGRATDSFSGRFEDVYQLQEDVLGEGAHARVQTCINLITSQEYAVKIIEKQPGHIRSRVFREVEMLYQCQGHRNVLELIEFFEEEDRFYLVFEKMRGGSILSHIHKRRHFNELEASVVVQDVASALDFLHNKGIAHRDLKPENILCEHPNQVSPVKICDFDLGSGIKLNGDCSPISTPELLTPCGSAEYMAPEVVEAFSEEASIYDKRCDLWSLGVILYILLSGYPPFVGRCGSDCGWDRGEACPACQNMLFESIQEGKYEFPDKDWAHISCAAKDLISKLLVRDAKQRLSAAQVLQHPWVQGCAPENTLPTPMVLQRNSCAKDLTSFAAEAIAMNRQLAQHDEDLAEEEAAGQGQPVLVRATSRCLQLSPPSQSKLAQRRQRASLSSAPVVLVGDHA
# Sequence of Mitogen-activated protein kinase 12 (P53778 whole entry): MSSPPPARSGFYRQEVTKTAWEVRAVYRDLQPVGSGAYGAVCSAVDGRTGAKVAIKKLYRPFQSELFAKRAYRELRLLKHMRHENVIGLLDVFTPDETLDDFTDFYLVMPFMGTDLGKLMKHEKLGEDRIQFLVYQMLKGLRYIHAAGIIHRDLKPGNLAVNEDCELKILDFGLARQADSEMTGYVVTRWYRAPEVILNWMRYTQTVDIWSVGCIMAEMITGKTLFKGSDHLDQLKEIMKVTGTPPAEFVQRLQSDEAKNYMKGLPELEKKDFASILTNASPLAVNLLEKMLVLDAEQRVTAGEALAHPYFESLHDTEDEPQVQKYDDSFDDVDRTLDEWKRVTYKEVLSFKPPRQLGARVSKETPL
# Sequence of Misshapen-like kinase 1 (Q8N4C8 whole entry): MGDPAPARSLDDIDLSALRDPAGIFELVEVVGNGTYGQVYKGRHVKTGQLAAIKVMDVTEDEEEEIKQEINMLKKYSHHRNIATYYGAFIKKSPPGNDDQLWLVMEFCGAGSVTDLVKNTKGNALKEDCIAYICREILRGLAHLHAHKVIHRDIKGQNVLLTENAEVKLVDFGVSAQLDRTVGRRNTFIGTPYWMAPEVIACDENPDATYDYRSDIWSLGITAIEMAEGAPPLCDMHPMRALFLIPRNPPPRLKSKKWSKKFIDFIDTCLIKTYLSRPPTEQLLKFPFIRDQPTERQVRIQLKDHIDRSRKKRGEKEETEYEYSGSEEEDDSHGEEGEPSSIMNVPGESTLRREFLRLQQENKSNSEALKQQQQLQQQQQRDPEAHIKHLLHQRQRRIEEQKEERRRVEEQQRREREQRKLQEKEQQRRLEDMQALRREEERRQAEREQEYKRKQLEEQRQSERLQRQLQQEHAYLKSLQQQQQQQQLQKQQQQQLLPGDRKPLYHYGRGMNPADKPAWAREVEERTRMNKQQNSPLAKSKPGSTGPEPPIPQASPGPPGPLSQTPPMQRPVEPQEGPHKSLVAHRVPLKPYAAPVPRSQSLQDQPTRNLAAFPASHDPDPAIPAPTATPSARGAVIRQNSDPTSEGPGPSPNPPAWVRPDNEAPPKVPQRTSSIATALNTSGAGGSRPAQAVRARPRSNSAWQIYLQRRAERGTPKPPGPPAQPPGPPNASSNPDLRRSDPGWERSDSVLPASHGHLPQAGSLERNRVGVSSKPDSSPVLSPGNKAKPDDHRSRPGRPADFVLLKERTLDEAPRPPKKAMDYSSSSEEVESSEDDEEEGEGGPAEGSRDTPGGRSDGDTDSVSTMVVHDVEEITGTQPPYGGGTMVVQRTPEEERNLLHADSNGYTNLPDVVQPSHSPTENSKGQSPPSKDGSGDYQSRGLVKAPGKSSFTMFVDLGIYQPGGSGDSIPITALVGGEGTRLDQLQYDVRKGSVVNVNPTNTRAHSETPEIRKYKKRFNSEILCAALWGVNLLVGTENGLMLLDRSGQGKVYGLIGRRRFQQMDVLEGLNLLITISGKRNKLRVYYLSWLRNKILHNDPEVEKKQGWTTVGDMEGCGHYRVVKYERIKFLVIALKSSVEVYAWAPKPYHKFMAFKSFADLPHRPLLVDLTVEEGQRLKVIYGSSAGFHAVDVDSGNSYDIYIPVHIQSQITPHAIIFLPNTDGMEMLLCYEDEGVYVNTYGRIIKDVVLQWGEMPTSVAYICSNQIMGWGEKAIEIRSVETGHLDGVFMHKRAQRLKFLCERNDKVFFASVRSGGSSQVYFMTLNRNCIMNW
# Sequence of Serine/threonine-protein kinase D2 (Q9BZL6 whole entry): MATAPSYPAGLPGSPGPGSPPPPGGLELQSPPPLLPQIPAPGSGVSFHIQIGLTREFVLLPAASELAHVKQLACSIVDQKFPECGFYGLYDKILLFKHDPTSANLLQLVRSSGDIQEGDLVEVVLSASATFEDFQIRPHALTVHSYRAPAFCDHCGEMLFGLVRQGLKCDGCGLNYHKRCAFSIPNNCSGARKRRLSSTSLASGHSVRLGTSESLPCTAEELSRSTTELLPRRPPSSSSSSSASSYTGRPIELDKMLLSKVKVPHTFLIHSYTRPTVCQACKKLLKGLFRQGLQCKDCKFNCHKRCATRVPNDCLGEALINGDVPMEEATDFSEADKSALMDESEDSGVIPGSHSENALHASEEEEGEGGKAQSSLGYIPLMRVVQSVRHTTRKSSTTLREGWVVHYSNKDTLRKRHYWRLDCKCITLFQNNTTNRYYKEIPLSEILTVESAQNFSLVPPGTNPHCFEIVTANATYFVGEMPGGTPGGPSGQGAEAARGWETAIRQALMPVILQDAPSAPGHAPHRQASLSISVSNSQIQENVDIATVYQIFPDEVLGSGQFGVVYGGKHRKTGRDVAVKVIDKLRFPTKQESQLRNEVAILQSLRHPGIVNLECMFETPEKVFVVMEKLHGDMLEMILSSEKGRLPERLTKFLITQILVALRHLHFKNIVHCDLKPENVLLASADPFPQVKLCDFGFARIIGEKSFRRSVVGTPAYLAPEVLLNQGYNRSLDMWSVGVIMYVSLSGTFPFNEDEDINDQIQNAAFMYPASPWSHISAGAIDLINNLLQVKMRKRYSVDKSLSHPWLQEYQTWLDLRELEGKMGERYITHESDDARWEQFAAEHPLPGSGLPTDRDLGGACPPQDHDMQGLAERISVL
# Sequence of Tyrosine-protein kinase ITK/TSK (Q08881 whole entry): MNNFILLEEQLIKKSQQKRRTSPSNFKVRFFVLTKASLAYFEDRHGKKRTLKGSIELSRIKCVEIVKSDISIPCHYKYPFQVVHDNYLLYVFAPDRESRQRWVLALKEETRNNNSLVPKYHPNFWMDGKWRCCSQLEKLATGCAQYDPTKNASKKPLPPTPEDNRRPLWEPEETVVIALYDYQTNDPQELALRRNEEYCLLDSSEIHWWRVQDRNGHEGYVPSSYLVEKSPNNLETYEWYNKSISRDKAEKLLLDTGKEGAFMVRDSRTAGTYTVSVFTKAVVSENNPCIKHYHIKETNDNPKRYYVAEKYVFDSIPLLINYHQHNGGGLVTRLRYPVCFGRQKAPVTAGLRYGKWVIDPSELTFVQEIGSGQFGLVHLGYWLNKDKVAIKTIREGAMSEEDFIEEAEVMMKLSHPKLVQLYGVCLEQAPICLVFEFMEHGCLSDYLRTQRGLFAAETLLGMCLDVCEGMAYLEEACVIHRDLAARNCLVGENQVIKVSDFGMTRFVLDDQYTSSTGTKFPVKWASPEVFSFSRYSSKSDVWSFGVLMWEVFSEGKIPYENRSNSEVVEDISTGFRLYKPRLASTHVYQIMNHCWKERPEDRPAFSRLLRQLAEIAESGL
# Sequence of Testis-specific serine/threonine-protein kinase 2 (Q96PF2 whole entry): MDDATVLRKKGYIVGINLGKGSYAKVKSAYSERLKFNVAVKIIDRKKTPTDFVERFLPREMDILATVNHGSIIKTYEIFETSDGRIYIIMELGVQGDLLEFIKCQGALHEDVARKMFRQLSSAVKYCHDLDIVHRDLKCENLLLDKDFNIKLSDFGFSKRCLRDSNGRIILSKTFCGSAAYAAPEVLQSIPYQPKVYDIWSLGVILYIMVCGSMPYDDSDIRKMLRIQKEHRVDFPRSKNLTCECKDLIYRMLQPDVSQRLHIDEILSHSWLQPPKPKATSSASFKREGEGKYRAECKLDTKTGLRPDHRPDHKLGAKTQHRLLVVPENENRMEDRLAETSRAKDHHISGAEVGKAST
# Sequence of Megakaryocyte-associated tyrosine-protein kinase (P42679 whole entry): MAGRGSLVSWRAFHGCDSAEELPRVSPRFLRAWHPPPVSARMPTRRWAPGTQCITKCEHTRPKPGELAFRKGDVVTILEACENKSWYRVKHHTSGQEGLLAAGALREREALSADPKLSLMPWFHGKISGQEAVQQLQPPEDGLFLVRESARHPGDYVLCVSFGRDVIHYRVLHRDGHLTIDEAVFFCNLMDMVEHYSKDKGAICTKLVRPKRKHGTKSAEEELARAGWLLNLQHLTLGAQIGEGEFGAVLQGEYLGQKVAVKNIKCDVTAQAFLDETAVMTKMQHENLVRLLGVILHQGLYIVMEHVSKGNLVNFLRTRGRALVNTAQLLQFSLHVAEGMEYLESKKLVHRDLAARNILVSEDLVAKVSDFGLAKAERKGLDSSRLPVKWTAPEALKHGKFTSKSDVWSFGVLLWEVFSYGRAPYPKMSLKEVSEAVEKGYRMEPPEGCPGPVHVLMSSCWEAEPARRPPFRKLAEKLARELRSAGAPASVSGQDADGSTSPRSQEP
# Sequence of MAP kinase-activated protein kinase 3 (Q16644 whole entry): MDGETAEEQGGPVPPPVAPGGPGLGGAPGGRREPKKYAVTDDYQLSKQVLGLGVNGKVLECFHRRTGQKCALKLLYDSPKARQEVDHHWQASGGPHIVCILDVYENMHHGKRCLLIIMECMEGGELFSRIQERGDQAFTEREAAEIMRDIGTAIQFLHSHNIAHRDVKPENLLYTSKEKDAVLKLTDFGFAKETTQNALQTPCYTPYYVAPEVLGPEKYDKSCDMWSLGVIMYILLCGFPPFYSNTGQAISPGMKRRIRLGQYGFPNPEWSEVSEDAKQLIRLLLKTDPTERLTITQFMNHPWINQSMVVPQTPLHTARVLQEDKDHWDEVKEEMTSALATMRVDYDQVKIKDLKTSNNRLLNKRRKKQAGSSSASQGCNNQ
smiles,measurement,setting,value
OC1CCC(Nc2nc(Cl)cc(-c3c[nH]c4ncccc34)n2)CC1 (stereo unspecified),Ki,[1],> 2 µM (inactive)
same,Ki,[2],20 nM (active)
same,pKi,[2],7.7
same,Ki,[3],> 1.58 µM (inactive)
same,Ki,[4],398 nM (active)
same,pKi,[4],6.4
same,Ki,[5],158 nM (active)
same,pKi,[5],6.8
same,Ki,[6],> 7.94 µM (inactive)
same,Ki,[7],> 1.58 µM (inactive)
same,Ki,[8],> 10 µM (inactive)
same,Ki,[9],39.8 nM (active)
same,pKi,[9],7.4
same,Ki,Misshapen-like kinase 1,3.16 nM (active)
same,pKi,Misshapen-like kinase 1,8.5
same,Ki,[10],158 nM (active)
same,pKi,[10],6.8
CCN(CC)CCCC(C)n1c2nc(=O)[nH]c(=O)c-2nc2cc(Cl)ccc21 (stereo unspecified),AC50,HeLa,8.49 µM (active)
same,EC50,Insulin-degrading enzyme,> 54.7 µM (inactive)
same,EC50,HEK293,> 54.7 µM (inactive)
COc1cccc(CNC(=O)c2cnc(-c3ccncc3)nc2)c1,Ki,[11],> 2.51 µM (inactive)
